# Experimental data: patent US12419931B2, “Anti-cancer composition” (ACUPHARM INTERNATIONAL PROPRIETARY LIMITED, priority 2020, dated 2025)
# System: cultured tissue from needle biopsy, Breast DCIS papillary neoplasm
# Assay: dose response study with cumulative cell death on cultured patient biopsy tissue (patient 19055)
# Format: cell-based, human
# Settings: in vitro cultured biopsy sample, patient 19055, Breast DCIS papillary neoplasm
# Protocol: Comparative studies were performed using curcumin extract as described above (referred to as ACPJL 08), Sutherlandia leaf extract in water (referred to as ACPJL 35), Sutherlandia leaf extract in 50% ethanol and water solution (referred to as ACPJL 28), Sutherlandia leaf extract in 90% ethanol and water solution (referred to as ACPJL 07) and a combinatorial formulation using the curcumin extract and Sutherlandia leaf extract in water and alcohol according to this invention (referred to as ACPJL 20). These extracts were compared to a number of known botanical isolates with anti-cancer activity, as well as a number of known anti-cancer drugs, using a dose response design with cumulative cell death as the dependent variable. These studies were conducted on in vitro samples of cultured tissue, taken as biopsy samples from patients as part of a standard culture and testing process done in order to optimise treatment.
# A representative sample of such a study is provided herein below.
# Summary of Study of Patient with Assigned Number 19055
# Patient from whom sample was obtained was a person presenting with a diagnosis of Breast DCIS papillary neoplasm. The sample was obtained via needle biopsy, before being cultured.
row,Compound,overall assessment in standard culture and testing process
1,COc1cc2c(Oc3ccc4[nH]c(C)cc4c3F)ncnc2cc1OCCCN1CCCC1 [Cediranib],potential benefit
2,Nc1nc(Cl)nc2c1ncn2[C@@H]1O[C@H](CO)[C@@H](O)[C@@H]1F [Clofarabine],potential benefit
3,CC(=O)O[C@@]12CO[C@@H]1C[C@H](O)[C@@]1(C)C(=O)[C@H](O)C3=C(C)[C@@H](OC(=O)[C@H](O)[C@@H](NC(=O)OC(C)(C)C)c4ccccc4)C[C@@](O)([C@@H](OC(=O)c4ccccc4)[C@H]21)C3(C)C [Docetaxel],potential benefit
4,COc1cc2ncnc(Nc3ccc(F)c(Cl)c3)c2cc1OCCCN1CCOCC1 [Gefitinib],potential benefit
5,O=C1c2c(O)ccc(O)c2C(=O)c2c(NCCNCCO)ccc(NCCNCCO)c21 [Mitoxantrone],potential benefit
6,COC(=O)c1ccc2c(c1)NC(=O)/C2=C(\Nc1ccc(N(C)C(=O)CN2CCN(C)CC2)cc1)c1ccccc1 [Nintedanib],good efficacy and a positive dose response curve
7,CC(=O)O[C@H]1C(=O)[C@@]2(C)[C@H]([C@H](OC(=O)c3ccccc3)[C@]3(O)C[C@H](OC(=O)[C@H](O)[C@@H](NC(=O)c4ccccc4)c4ccccc4)C(C)=C1C3(C)C)[C@]1(OC(C)=O)CO[C@@H]1C[C@@H]2O [Paclitaxel],potential benefit
8,CC[C@]1(O)C[C@H]2CN(CCc3c([nH]c4ccccc34)[C@@](C(=O)OC)(c3cc4c(cc3OC)N(C=O)[C@H]3[C@@](O)(C(=O)OC)[C@H](OC(C)=O)[C@]5(CC)C=CCN6CC[C@]43[C@@H]65)C2)C1 [Vincristine],potential benefit
9,CCC1=C[C@@H]2CN(C1)Cc1c([nH]c3ccccc13)[C@@](C(=O)OC)(c1cc3c(cc1OC)N(C)[C@H]1[C@@](O)(C(=O)OC)[C@H](OC(C)=O)[C@]4(CC)C=CCN5CC[C@]31[C@@H]54)C2 [Vinorelbine],potential benefit
10,O=C(CCCCCCC(=O)Nc1ccccc1)NO [Vorinostat],potential benefit
